According to ChEMBL document CHEMBL1201862, “PubChem BioAssay data set” (2004):
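Protocol summary: plate cells (96-well), add compound at 5 concentrations, incubate 48 h, interpolate endpoints linearly. At the GI50, growth is halved.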 Activity calls are given as the source filed them. Rule as the data show it: active = GI50 up to about 1.1 µM and inactive = higher.

What was measured:
Test in all cases: growth of human tumour cells (NCI), 48 h
[1] = tested on: DMS-273
[2] = tested on: M19-MEL
[3] = tested on: SNB-78
[4] = tested on: XF498
[5] = tested on: MDA-N
[6] = tested on: MDA-MB-231
[7] = tested on: SR
[8] = tested on: LXFL 529
[9] = tested on: RXF 631

## CCNC(=O)C(C)C1CCC2(C)C=CC(=O)C(C)=C2C1O (centres undefined)
[1]
  GI50: > 77.4 µM (inactive)
[2]
  GI50: > 100 µM (inactive)
[3]
  GI50: > 100 µM (inactive)
[4]
  GI50: > 100 µM (inactive)

## Cc1ccc(C=C(C(=O)O)C(=O)O)o1
[5]
  GI50: > 100 µM (inactive)
[6]
  GI50: > 100 µM (inactive)
[7]
  GI50: > 100 µM (inactive)

## Cc1ccc([N+](=O)[O-])cc1S(=O)(=O)Nc1ccc(C2=NN(C(=O)c3ccccc3)C(c3ccccc3)C2)cc1 (centres undefined)
[5]
  GI50: 21.2 µM (inactive)
[6]
  GI50: 15.5 µM (inactive)
[7]
  GI50: 26.4 µM (inactive)

## CCOC(=O)CN1CCS/C1=N/C#N
[1]
  GI50: > 100 µM (inactive)
[2]
  GI50: > 100 µM (inactive)
[3]
  GI50: > 100 µM (inactive)
[4]
  GI50: > 100 µM (inactive)

## CC1=CC(O)C(O)C2(C)C1CC1OC(=O)C(O)C3C(C)C(O)C4(O)OCC13C42 (centres undefined)
[1]
  GI50: 153 µM (inactive)
[2]
  GI50: 56 µM (inactive)
[3]
  GI50: 39.4 µM (inactive)
[4]
  GI50: 53.1 µM (inactive)

## COc1cc(C=O)cc(O)c1O
[8]
  GI50: > 100 µM (inactive)
[1]
  GI50: > 100 µM (inactive)
[7]
  GI50: 57.9 µM (inactive)
[2]
  GI50: > 100 µM (inactive)
[3]
  GI50: > 100 µM (inactive)

## CSC1=C(SC)C(=O)c2cn(C)c(=O)cc2C1=O
[5]
  GI50: 1.64 µM (inactive)
[6]
  GI50: 1.87 µM (inactive)
[7]
  GI50: < 0.0332 µM (active)

## CC(C)[C@](O)(C(=O)OCC1CC[N+]2([O-])CC[C@@H](O)C12)[C@H](C)O (some centres undefined)
[1]
  GI50: > 375 µM (inactive)
[2]
  GI50: > 375 µM (inactive)
[3]
  GI50: > 375 µM (inactive)
[4]
  GI50: > 375 µM (inactive)

## O=C1OC2CC=CC1C2 (centres undefined)
[1]
  GI50: > 100 µM (inactive)
[2]
  GI50: > 100 µM (inactive)
[3]
  GI50: > 100 µM (inactive)
[4]
  GI50: > 100 µM (inactive)

## COc1ccc(NC(=S)NNC(=O)c2nsc3ccccc23)cc1
[8]
  GI50: 39.4 µM (inactive)
[1]
  GI50: 26.1 µM (inactive)
[7]
  GI50: 31 µM (inactive)
[2]
  GI50: 33 µM (inactive)
[3]
  GI50: 41.7 µM (inactive)

## CSCCC(NOC(=O)Cc1ccccc1)P(=O)(O)c1ccccc1 (centres undefined)
[5]
  GI50: > 100 µM (inactive)
[6]
  GI50: > 100 µM (inactive)
[7]
  GI50: > 100 µM (inactive)

## Nc1nc(=O)[nH]cc1F [FLUCYTOSINE]
[5]
  GI50: > 100 µM (inactive)
[7]
  GI50: > 100 µM (inactive)

## COc1ccc2c(c1)c1c(n2CCN2CCCCC2)-c2cccc(OC)c2CC1
[5]
  GI50: 16.2 µM (inactive)
[6]
  GI50: 15.6 µM (inactive)
[7]
  GI50: 4.9 µM (inactive)

## COc1cc2c(oc(=O)c3cc4cc([Si](C)(C)C)oc4c(OC)c32)c2cccc(O)c12
[8]
  GI50: > 100 µM (inactive)
[1]
  GI50: > 100 µM (inactive)
[7]
  GI50: > 100 µM (inactive)
[2]
  GI50: > 100 µM (inactive)
[3]
  GI50: > 100 µM (inactive)
[4]
  GI50: > 100 µM (inactive)

## Oc1nc2c(c(-c3ccccc3Cl)n1)COC/C2=C\c1ccccc1Cl
[5]
  GI50: > 100 µM (inactive)
[6]
  GI50: > 100 µM (inactive)

## Clc1ccc(C2SCc3nc4ccccc4n32)cc1 (centres undefined)
[8]
  GI50: 18.7 µM (inactive)
[1]
  GI50: 15.4 µM (inactive)
[9]
  GI50: 29.2 µM (inactive)
[2]
  GI50: 19.9 µM (inactive)
[3]
  GI50: 29.9 µM (inactive)
[4]
  GI50: 8.2 µM (inactive)

## C=C1C(=O)O[C@@H]2/C=C(\C)CC/C=C(\C)CC[C@@]12O
[5]
  GI50: 2.25 µM (inactive)
[6]
  GI50: 8.65 µM (inactive)
[7]
  GI50: 2.42 µM (inactive)
